The structures appear in SMILES notation. Calls of active or inactive are those of the source.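 The calls were made as follows: active = a tumor-causing dose value with its tumor site reported for any sex and species group of a rodent or other animal cancer study; inconclusive = only studies judged inadequate by the national testing program; inactive = tested in at least one study, none positive.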

The data set is described as follows: DSSTox (CPDBAS) Carcinogenic Potency Database Summary SingleCellCall Results. The conditions noted are these: animal chronic carcinogenicity bioassays, CPDB summary call. The gist of the method:
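Literature-derived summary: each substance receives an overall carcinogenic/non-carcinogenic category drawn from long-term bioassays in rats, mice, hamsters, dogs or primates, using the most positive sex-species experiment and minimal evidence criteria.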
`CC1=CC(=O)NS(=O)(=O)O1`: the result was inactive.
Consider `O=NN1CCC1`, for which the result was active.
For the molecule `CCCCCN(N=O)C(N)=O`, the outcome was active.
Regarding `Cc1ccc([N+](=O)[O-])cc1`, the result was active.
`C=CC=C`: the outcome was “active; inactive”.
To `CC1=C(/C=C/C(C)=C/C=C/C(C)=C/C=C/C=C(C)/C=C/C=C(C)/C=C/C2=C(C)CCCC2(C)C)C(C)(C)CCC1` belongs “inactive”; to `C[C@]12C=CC(=O)C=C1CC[C@@H]1[C@@H]2[C@@H](O)C[C@@]2(C)[C@H]1CC[C@]2(O)C(=O)COC(=O)CCCc1ccc(N(CCCl)CCCl)cc1`, “active”.
Take `CN(C)CCC(c1ccc(Cl)cc1)c1ccccn1` (centres undefined): the outcome was inactive.
The value for `O` was “inactive”; that for `O=C1CCC(=O)O1` was “inactive”.
To `O=C1CCCCCN1` belongs “inactive”; to `CN(C)CCN(Cc1cccs1)c1ccccn1`, “active”.
Consider `CN(C)CCOc1ccc(/C(=C(/CCCl)c2ccccc2)c2ccccc2)cc1`, for which the result was inactive.
The value for `CCN(N=O)C(=O)NCC(C)=O` was “active”.
To `COc1ccc(N)cc1` belongs “inactive”.
With `CCOC(=O)C(C)(C)Oc1ccc(Cl)cc1`, the result was active.
The value for `CN(CCCC(O)c1cccnc1)N=O` (centres undefined) was “active”; that for `CN(C)CCOC(C)(c1ccccc1)c1ccccn1` (centres undefined) was “active; inactive”; that for `CN(C)[C@@H]1C(=O)C(C(N)=O)=C(O)[C@@]2(O)C(=O)C3=C(O)c4c(O)cccc4[C@@](C)(O)[C@H]3C[C@@H]12` was “inactive”.
In the case of `CN(N=O)c1ccc([N+](=O)[O-])cc1`, the outcome was inactive.
With `CC(=O)CN(CC(C)=O)N=O`, the result was active.
As for `CC[N+](=O)[O-]`, the result was inactive.
To `CCCCCC` belongs “active”; to `C=CCN(CC(O)CO)N=O` (centres undefined), “active”; to `Cc1ccc2c(c1[N+](=O)[O-])C(=O)c1ccccc1C2=O`, “active”.
The value for `CC(C)OC(=O)Nc1cccc(Cl)c1` was “inactive; active”.
With `Cc1cc(C)c(N=Nc2c(O)c(S(=O)(=O)O)cc3cc(S(=O)(=O)O)ccc23)cc1C`, the outcome was “active; inactive”.
The value for `O=NN1CCOC1=O` was “active; inactive”; that for `NC(=O)NC1NC(=O)NC1=O` (centres undefined) was “inactive”.
With `CC1(C)[C@@H](OC2O[C@H](C(=O)O)[C@@H](O)[C@H](O)[C@H]2O[C@H]2O[C@H](C(=O)O)[C@@H](O)[C@H](O)[C@H]2O)CC[C@]2(C)[C@H]3C(=O)C=C4[C@@H]5C[C@@](C)(C(=O)O)CC[C@]5(C)CC[C@@]4(C)[C@]3(C)CC[C@@H]12` (some centres undefined), the result was inactive.
The value for `Nc1cccc2ccccc12` was “active”; that for `COc1ccc(N)c(C)c1` was “active”.
Turning to `CCc1ccc(C(c2ccc(CC)cc2)C(Cl)Cl)cc1`, the outcome was inactive.
The value for `O1[As]2O[As]3O[As]1O[As](O2)O3` was “inactive”; that for `C/C=C/C=O` was “active”.
Consider `CCCCN(CCCC)C(=S)[S-].CCCCN(CCCC)C(=S)[S-].[Ni+2]`, for which the outcome is “inactive; active”.
For the molecule `O=C(Oc1ccccc1)Oc1ccccc1`, the outcome was inactive.
Turning to `C[N+](C)(C)CCO`, the outcome was inactive.
`CN(C)C(=S)SC(=S)N(C)C`: the result was inactive.
On to `O=C(N[C@H](CO)[C@H](O)c1ccc([N+](=O)[O-])cc1)C(Cl)Cl`, for which the result was inactive.
The value for `C=C(Cl)Cl` was “active”.
For `O=C(O)CN(CC(=O)O)CC(=O)O`, the result was active.
For the molecule `CN(C)[C@@H]1C(=O)C(C(N)=O)=C(O)[C@@]2(O)C(=O)C3=C(O)c4c(O)cccc4[C@@](C)(O)[C@H]3[C@H](O)[C@@H]12`, the outcome is “inactive; active”.
Consider `CC(O)CN(C)c1ccc(NN)nn1` (centres undefined), for which the result was inactive.
On to `ClCC1CO1` (centres undefined), for which the result was active.
The value for `CC(=O)Nc1ccc(-c2ccc(F)cc2)cc1` was “active”.
The value for `COc1cc(OC)c2c3c(c(=O)oc2c1)CCC3=O` was “inactive”; that for `CNC(=O)Oc1cccc2ccccc12` was “active”; that for `C1CC2OC2CC1C1CO1` (centres undefined) was “inactive”.
To `C=CCO` belongs “inactive; active”; to `CC[C@H](OC(C)=O)C(C[C@H](C)N(C)C)(c1ccccc1)c1ccccc1`, “active”; to `NC(=O)c1ccccc1C(N)=O`, “inactive”.
Turning to `CC(C)(Oc1ccc(C2CCCc3ccccc32)cc1)C(=O)O` (centres undefined), the outcome was “active; inactive”.
To `COc1cc(OC)c2c3c(c(=O)oc2c1)C(=O)CC3` belongs “inactive; active”; to `C1C2OC2C2C1C1CC2C2OC12` (centres undefined), “inactive”; to `Nc1cc([N+](=O)[O-])ccc1O`, “active”.
The value for `NC(=O)Cc1cccc2ccccc12` was “inactive; active”; that for `C=CCOc1ccccc1OCC(O)CNC(C)C` (centres undefined) was “inactive”; that for `COc1cccc2c1cc([N+](=O)[O-])c1c(C(=O)O)cc3c(c12)OCO3` was “active; inactive”.
To `O=[As]O` belongs “inactive”.
As for `ClCOCCl`, the outcome is “active; inactive”.
Turning to `FC(F)Cl`, the result was inactive.
In the case of `CNCCC(Oc1ccc(C(F)(F)F)cc1)c1ccccc1` (centres undefined), the outcome is “inactive; active”.
To `COc1c(Cl)c(Cl)c(Cl)c(Cl)c1Cl` belongs “active”; to `COc1ccc([C@@H]2CC(=O)c3c(O)cc(O[C@@H]4O[C@H](CO[C@@H]5O[C@@H](C)[C@H](O)[C@@H](O)[C@H]5O)[C@@H](O)[C@H](O)[C@H]4O)cc3O2)cc1OC`, “inactive”.
To `CC(=O)Nc1ccc(O)cc1` belongs “active; inactive”; to `S=C=NCCCCCCc1ccccc1`, “inactive”.
For `O=NN(c1ccccc1)c1ccccc1`, the outcome is “active; inactive”.
The value for `c1ccncc1` was “active”; that for `O=Nc1ccc(Nc2ccccc2)cc1` was “active; inactive”.
The value for `Oc1ccc(Cl)cc1Cl` was “inactive”; that for `CC1CN(N=O)C(=O)O1` (centres undefined) was “active”.
The value for `C=C(C)[C@H]1Cc2c(ccc3c2O[C@@H]2COc4cc(OC)c(OC)cc4[C@@H]2C3=O)O1` was “inactive; active”.
On to `Nc1ccc(Cc2ccc(N)cc2)cc1`, for which the outcome was “active; inactive”.
The value for `OCC(CO)(CBr)CBr` was “active”; that for `CC(=O)C(N=Nc1ccc(-c2ccc(N=NC(C(C)=O)C(=O)Nc3ccccc3)c(Cl)c2)cc1Cl)C(=O)Nc1ccccc1` (centres undefined) was “inactive”.
Take `CC1=C(C(=O)OC(C)C)C(c2cccc([N+](=O)[O-])c2)C(C(=O)OC2CN(C(c3ccccc3)c3ccccc3)C2)=C(N)N1` (centres undefined): the outcome was “inactive; active”.
Consider `CC1CN(N=O)CC(C)N1C` (centres undefined), for which the outcome was active.
Consider `O=NN(CCO)C(=O)NCCCl`, for which the outcome was active.
